{"source": "patent US20250361239A1", "about": "“PROTEIN DEGRADERS AND USES THEREOF” (ZHUHAI YUFAN BIOTECHNOLOGIES CO., LTD., priority 2022, published 2025)"}
{"test_system": "Hep3B cells", "experiment": "Hep3B cell killing experiment (CellTiter-Glo cell viability)", "format": "cell-based", "details": "Homo sapiens, 48 h incubation, CTG luminescence", "protocol": "(§1) Hep3B cell lines were purchased from ATCC (Cat #ATCC® HB-8064™), EMEM media were purchased from ATCC (Cat #ATCC® 30-2003™), FBS was purchased from Gibco (Cat #10091148), celltiter-glo luminescent cell viability assay was purchased from promega (Cat #G7572), and 96-well plates were purchased from coming (Cat #3610).\nThe effect of compounds on the growth of Hep3B cells was determined by measuring cell viability and growth rate. Firstly, the cells were digested with pancreatin, and the digestion was then terminated with medium. The cells were centrifuged, and the supernatant was discarded. The centrifuged cells were resuspended in a fresh complete medium, and the cell density was adjusted to 5×10^4 cells/mL. The resuspended cells were inoculated into two identical opaque 96-well cell culture plates at 100 μL of cell suspension per well, and the cell culture plates were incubated in a cell incubator at 37° C. overnight. The next day, dilutions (20 μL) of compounds with different concentrations were added. After one of the cell plates was cooled to room temperature, 60 μL of CTG reagent was added. The luminescence values were read on the instrument as G0. The other one was incubated in a cell incubator for 48 h. After 48 h, 60 μL of CTG reagent was added, and the luminescence values were read on the instrument as G3.\n(§2) According to the corresponding proliferation rate and concentration of each gradient concentration well, a gradient curve of cell proliferation was fitted using XLFit software, and the GI50 values of compounds were calculated.", "units": {"GI50": "nM"}}
{"smiles": "Cn1c2cnccc2nc1[C@H]1CC[C@H](N2Cc3ccc(CNc4cccc5c4C(=O)N(C4CCC(=O)NC4=O)C5=O)cc3C2=O)CC1", "note": "(stereo partly drawn) [Example 70]", "GI50": 5.21}
{"smiles": "Cn1c(C2CCC(NC(=O)c3cc(CNc4cccc5c4C(=O)N(C4CCC(=O)NC4=O)C5=O)ccn3)CC2)nc2ccncc21", "note": "(stereo not drawn) [Example 39]", "GI50": 0.99}
{"smiles": "Cn1c(C2CCC(NC(=O)C3CC(CNc4cccc5c4C(=O)N(C4CCC(=O)NC4=O)C5=O)C3)CC2)nc2ccncc21", "note": "(stereo not drawn) [Example 10]", "GI50": 6.91}
{"smiles": "CC(C)n1c(C2CCC(NC(=O)c3cccc(CNc4cccc5c4C(=O)N(C4CCC(=O)NC4=O)C5=O)c3)CC2)nc2cccnc21", "note": "(stereo not drawn) [Example 83]", "GI50": 7.88}
{"smiles": "Cn1c2cnccc2nc1[C@H]1CC[C@H](NC(=O)c2cc(CNc3cccc4c3C(=O)N(C3CCC(=O)NC3=O)C4=O)ccn2)CC1", "note": "(stereo partly drawn) [Example 26]", "GI50": 2.7}
{"molecular_target": "T1, GSPT1 (Homo sapiens, UniProt P15170+Q96SW2)", "T1 construct": "host or cells: HEK293", "T1 sequence (P15170 whole entry)": "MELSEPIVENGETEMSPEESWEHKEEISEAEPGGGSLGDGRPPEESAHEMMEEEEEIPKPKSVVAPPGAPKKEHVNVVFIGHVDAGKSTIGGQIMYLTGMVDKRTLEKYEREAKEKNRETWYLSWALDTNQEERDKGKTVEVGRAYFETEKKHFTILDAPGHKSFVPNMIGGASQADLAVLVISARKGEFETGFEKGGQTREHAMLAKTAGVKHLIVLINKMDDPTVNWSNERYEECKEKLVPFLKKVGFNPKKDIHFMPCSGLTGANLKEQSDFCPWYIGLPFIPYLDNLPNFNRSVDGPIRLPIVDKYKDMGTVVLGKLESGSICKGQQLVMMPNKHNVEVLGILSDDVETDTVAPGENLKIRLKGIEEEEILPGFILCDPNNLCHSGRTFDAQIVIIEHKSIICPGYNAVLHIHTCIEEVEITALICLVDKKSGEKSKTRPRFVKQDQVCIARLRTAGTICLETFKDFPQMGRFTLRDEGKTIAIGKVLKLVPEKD", "T1 sequence (Q96SW2 whole entry)": "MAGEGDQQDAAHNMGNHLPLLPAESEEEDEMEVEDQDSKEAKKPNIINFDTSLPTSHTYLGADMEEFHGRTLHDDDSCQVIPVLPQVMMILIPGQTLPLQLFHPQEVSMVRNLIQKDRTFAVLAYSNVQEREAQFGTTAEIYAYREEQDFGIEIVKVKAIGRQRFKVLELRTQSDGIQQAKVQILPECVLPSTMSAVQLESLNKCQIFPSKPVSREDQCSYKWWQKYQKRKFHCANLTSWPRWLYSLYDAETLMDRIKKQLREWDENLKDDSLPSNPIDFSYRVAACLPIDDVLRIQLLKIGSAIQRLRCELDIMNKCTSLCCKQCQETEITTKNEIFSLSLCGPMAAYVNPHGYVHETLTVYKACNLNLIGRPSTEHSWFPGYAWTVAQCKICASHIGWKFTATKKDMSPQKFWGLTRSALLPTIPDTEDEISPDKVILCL", "T1 sequence (Q16531 whole entry partner)": "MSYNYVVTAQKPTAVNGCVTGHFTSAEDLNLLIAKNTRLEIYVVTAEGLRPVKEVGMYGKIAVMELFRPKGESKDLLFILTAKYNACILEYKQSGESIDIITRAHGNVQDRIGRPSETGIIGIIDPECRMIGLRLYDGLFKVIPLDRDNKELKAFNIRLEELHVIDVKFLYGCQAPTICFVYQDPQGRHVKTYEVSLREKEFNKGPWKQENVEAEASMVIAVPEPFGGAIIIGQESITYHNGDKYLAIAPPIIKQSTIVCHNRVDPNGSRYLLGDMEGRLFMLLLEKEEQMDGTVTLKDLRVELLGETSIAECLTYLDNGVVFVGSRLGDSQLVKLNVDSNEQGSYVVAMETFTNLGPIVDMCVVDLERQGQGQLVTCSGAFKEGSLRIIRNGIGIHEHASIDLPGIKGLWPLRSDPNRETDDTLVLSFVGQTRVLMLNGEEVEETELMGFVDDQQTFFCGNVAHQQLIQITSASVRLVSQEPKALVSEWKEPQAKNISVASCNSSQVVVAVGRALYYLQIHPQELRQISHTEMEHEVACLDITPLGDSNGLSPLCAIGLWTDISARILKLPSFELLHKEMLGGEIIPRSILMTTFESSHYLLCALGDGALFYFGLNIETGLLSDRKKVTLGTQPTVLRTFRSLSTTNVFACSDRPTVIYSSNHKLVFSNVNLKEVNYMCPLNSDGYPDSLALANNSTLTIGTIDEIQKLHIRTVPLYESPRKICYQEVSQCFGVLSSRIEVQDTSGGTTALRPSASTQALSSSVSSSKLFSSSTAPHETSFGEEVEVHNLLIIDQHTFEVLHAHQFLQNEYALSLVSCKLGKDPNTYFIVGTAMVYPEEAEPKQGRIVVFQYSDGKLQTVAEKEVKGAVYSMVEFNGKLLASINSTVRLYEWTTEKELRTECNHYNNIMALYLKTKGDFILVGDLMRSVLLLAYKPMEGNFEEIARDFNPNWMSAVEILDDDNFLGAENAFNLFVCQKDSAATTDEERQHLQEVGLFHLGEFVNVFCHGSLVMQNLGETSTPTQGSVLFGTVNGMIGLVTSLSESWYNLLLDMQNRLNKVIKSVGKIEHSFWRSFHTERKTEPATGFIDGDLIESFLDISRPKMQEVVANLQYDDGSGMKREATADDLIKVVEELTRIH", "experiment": "Degradation of GSPT1 by the compounds (HiBiT signal in GSPT1/HEK293 hibit cells)", "format": "cell-based", "details": "6 h incubation, Nano Glo HiBiT Lytic Detection", "protocol": "GSPT1/HEK293 hibit cell lines were constructed by Shanghai BioDuro Co., Ltd., HEK293 cell lines were purchased from ATCC (Cat #ATCC® CRL-1573™), DMEM media were purchased from ATCC (Cat #ATCC® 30-2002™), FBS was purchased from Gibco (Cat #10091148), Nano Glo HiBiT Lytic Detection System was purchased from Promega (Cat #N3040), and 96-well plates were purchased from coming (Cat #3610).\nThe degradation of GSPT1 by the compounds was determined by measuring the intensity of hibit signals in cells. Firstly, the cells were digested with pancreatin, and the digestion was then terminated with medium. The cells were centrifuged, and the supernatant was discarded. The centrifuged cells were resuspended in a fresh complete medium, and the cell density was adjusted to 2.5×10^4 cells/mL. The resuspended cells were inoculated into an opaque 96-well cell culture plate at 100 μL of cell suspension per well, and the cell culture plate was incubated in a cell incubator at 37° C. overnight. The next day, dilutions (20 μL) of compounds with different concentrations were added, and the plate was incubated in a cell incubator for 6 h. After 6 h, 60 μL of Nano Glo HiBiT Lytic Detection System reagent was added and the luminescence values were read on the instrument.\nAccording to the corresponding degradation rate and concentration of each gradient concentration well, a gradient curve of degradation rate was fitted using XLFit software, and the DC50 values of compounds were calculated.", "units": {"DC50": "nM"}}
{"smiles": "Cn1c2cnccc2nc1[C@H]1CC[C@H](N2Cc3ccc(CNc4cccc5c4C(=O)N(C4CCC(=O)NC4=O)C5=O)cc3C2=O)CC1", "note": "(stereo partly drawn) [Example 70]", "DC50": "< 100"}
{"smiles": "Cn1c(C2CCC(NC(=O)c3cc(CNc4cccc5c4C(=O)N(C4CCC(=O)NC4=O)C5=O)ccn3)CC2)nc2ccncc21", "note": "(stereo not drawn) [Example 39]", "DC50": "< 100"}
{"smiles": "Cn1c(C2CCC(NC(=O)C3CC(CNc4cccc5c4C(=O)N(C4CCC(=O)NC4=O)C5=O)C3)CC2)nc2ccncc21", "note": "(stereo not drawn) [Example 10]", "DC50": "< 100"}
{"smiles": "CC(C)n1c(C2CCC(NC(=O)c3cccc(CNc4cccc5c4C(=O)N(C4CCC(=O)NC4=O)C5=O)c3)CC2)nc2cccnc21", "note": "(stereo not drawn) [Example 83]", "DC50": "< 100"}
{"smiles": "Cn1c2cnccc2nc1[C@H]1CC[C@H](NC(=O)c2cc(CNc3cccc4c3C(=O)N(C3CCC(=O)NC3=O)C4=O)ccn2)CC1", "note": "(stereo partly drawn) [Example 26]", "DC50": "< 100"}
{"test_system": "SU-DHL-2 cells", "experiment": "SU-DHL-2 cell killing experiment (CellTiter-Glo cell viability)", "format": "cell-based", "details": "Homo sapiens, 48 h incubation, CTG luminescence", "protocol": "as §1, with “SU-DHL-2” for “Hep3B”, “CRL-2956™), RPMI1640” for “HB-8064™), EMEM”, “30-2001™),” for “30-2003™),”\n(§3) The effect of compounds on the growth of SU-DHL-2 cells was determined by measuring cell viability and growth rate. Firstly, cells in the logarithmic growth phase were collected and centrifuged, and the culture supernatant was discarded. The centrifuged cells were resuspended in a fresh complete medium, and the cell density was adjusted to 5×10^4 cells/mL. The resuspended cells were inoculated into two identical opaque 96-well cell culture plates at 100 μL of cell suspension per well, and the cell culture plates were incubated in a cell incubator at 37° C. for 4 h. After 4 h, dilutions (20 μL) of compounds with different concentrations were added. After one of the cell plates was cooled to room temperature, 60 μL of CTG reagent was added, and the luminescence values were read on the instrument as G0. The other one was incubated in a cell incubator for 48 h. After 48 h, 60 μL of CTG reagent was added, and the luminescence values were read on the instrument as G3.\nas §2", "units": {"GI50": "nM"}}
{"smiles": "Cn1c2cnccc2nc1[C@H]1CC[C@H](N2Cc3ccc(CNc4cccc5c4C(=O)N(C4CCC(=O)NC4=O)C5=O)cc3C2=O)CC1", "note": "(stereo partly drawn) [Example 70]", "GI50": 22.3}
{"test_system": "Jurkat cells", "experiment": "Jurkat cell killing experiment (CellTiter-Glo cell viability)", "format": "cell-based", "details": "Homo sapiens, 48 h incubation, CTG luminescence", "protocol": "as §1, with “Jurkat” for “Hep3B”, “TIB-152™), RPMI1640” for “HB-8064™), EMEM”, “30-2001™),” for “30-2003™),”\nas §3, with “Jurkat” for “SU-DHL-2”\nas §2", "units": {"GI50": "nM"}}
{"smiles": "Cn1c(C2CCC(NC(=O)c3cc(CNc4cccc5c4C(=O)N(C4CCC(=O)NC4=O)C5=O)ccn3)CC2)nc2ccncc21", "note": "(stereo not drawn) [Example 39]", "GI50": 1.73}
{"smiles": "Cn1c2cnccc2nc1[C@H]1CC[C@H](NC(=O)c2cc(CNc3cccc4c3C(=O)N(C3CCC(=O)NC3=O)C4=O)ccn2)CC1", "note": "(stereo partly drawn) [Example 26]", "GI50": 2.24}
{"test_system": "Toledo cells", "experiment": "Toledo cell killing experiment (CellTiter-Glo cell viability)", "format": "cell-based", "details": "Homo sapiens, 48 h incubation, CTG luminescence", "protocol": "as §1, with “Toledo” for “Hep3B”, “CRL-2631™), RPMI1640” for “HB-8064™), EMEM”, “30-2001™),” for “30-2003™),”\nas §3, with “Toledo” for “SU-DHL-2”\nas §2", "units": {"GI50": "nM"}}
{"smiles": "Cn1c(C2CCC(NC(=O)c3cc(CNc4cccc5c4C(=O)N(C4CCC(=O)NC4=O)C5=O)ccn3)CC2)nc2ccncc21", "note": "(stereo not drawn) [Example 39]", "GI50": 3.58}
{"smiles": "Cn1c2cnccc2nc1[C@H]1CC[C@H](NC(=O)c2cc(CNc3cccc4c3C(=O)N(C3CCC(=O)NC3=O)C4=O)ccn2)CC1", "note": "(stereo partly drawn) [Example 26]", "GI50": 11.7}
{"test_system": "NCI-H929 cells", "experiment": "NCI-H929 cell killing experiment (CellTiter-Glo cell viability)", "format": "cell-based", "details": "Homo sapiens, 48 h incubation, CTG luminescence", "protocol": "as §1, with “NCI-H929” for “Hep3B”, “CRL-9068™), RPMI1640” for “HB-8064™), EMEM”, “30-2001™),” for “30-2003™),”\nas §3, with “2. Method The effect” for “The effect”, “growth of NCI-H929 cells was” for “growth of SU-DHL-2 cells was”\nas §2", "units": {"GI50": "nM"}}
{"smiles": "Cn1c2cnccc2nc1[C@H]1CC[C@H](N2Cc3ccc(CNc4cccc5c4C(=O)N(C4CCC(=O)NC4=O)C5=O)cc3C2=O)CC1", "note": "(stereo partly drawn) [Example 70]", "GI50": 1.63}
{"smiles": "Cn1c(C2CCC(NC(=O)C3CC(CNc4cccc5c4C(=O)N(C4CCC(=O)NC4=O)C5=O)C3)CC2)nc2ccncc21", "note": "(stereo not drawn) [Example 10]", "GI50": 19.6}
{"smiles": "CC(C)n1c(C2CCC(NC(=O)c3cccc(CNc4cccc5c4C(=O)N(C4CCC(=O)NC4=O)C5=O)c3)CC2)nc2cccnc21", "note": "(stereo not drawn) [Example 83]", "GI50": 5.49}
{"test_system": "THP-1 cells", "experiment": "THP-1 cell killing experiment (CellTiter-Glo cell viability)", "format": "cell-based", "details": "Homo sapiens, 48 h incubation, CTG luminescence", "protocol": "as §1, with “THP-1” for “Hep3B”, “TIB-202™), RPMI1640” for “HB-8064™), EMEM”, “30-2001™),” for “30-2003™),”\nas §3, with “THP-1” for “SU-DHL-2”\nas §2", "units": {"GI50": "nM"}}
{"smiles": "CC(C)n1c(C2CCC(NC(=O)c3cccc(CNc4cccc5c4C(=O)N(C4CCC(=O)NC4=O)C5=O)c3)CC2)nc2cccnc21", "note": "(stereo not drawn) [Example 83]", "GI50": 67.6}
{"test_system": "HL60 cells", "experiment": "HL60 cell killing experiment (CellTiter-Glo cell viability)", "format": "cell-based", "details": "48 h incubation, CTG luminescence", "protocol": "as §1, with “HL60” for “Hep3B”, “CCL-240™), IMDM” for “HB-8064™), EMEM”, “30-2005™),” for “30-2003™),”, “corning” for “coming”\nas §3, with “HL60” for “SU-DHL-2”, “viability.” for “viability and growth rate.”, “two” for “two identical”\nas §2", "units": {"GI50": "nM"}}
{"smiles": "Cn1c(C2CCC(NC(=O)c3cc(CNc4cccc5c4C(=O)N(C4CCC(=O)NC4=O)C5=O)ccn3)CC2)nc2ccncc21", "note": "(stereo not drawn) [Example 39]", "GI50": "< 100"}
{"test_system": "HL60 cells", "experiment": "HL60 cell killing experiment (CellTiter-Glo cell viability)", "format": "cell-based", "details": "Homo sapiens, HL-60, 48 h incubation, CTG luminescence", "protocol": "as §1, with “HL60” for “Hep3B”, “CCL-240™), IMDM” for “HB-8064™), EMEM”, “30-2005™),” for “30-2003™),”, “corning” for “coming”\nas §3, with “HL60” for “SU-DHL-2”, “viability.” for “viability and growth rate.”, “two” for “two identical”\nas §2", "units": {"GI50": "nM"}}
{"smiles": "Cn1c2cnccc2nc1[C@H]1CC[C@H](N2Cc3ccc(CNc4cccc5c4C(=O)N(C4CCC(=O)NC4=O)C5=O)cc3C2=O)CC1", "note": "(stereo partly drawn) [Example 70]", "GI50": "< 100"}
{"smiles": "Cn1c(C2CCC(NC(=O)C3CC(CNc4cccc5c4C(=O)N(C4CCC(=O)NC4=O)C5=O)C3)CC2)nc2ccncc21", "note": "(stereo not drawn) [Example 10]", "GI50": "< 100"}
{"smiles": "CC(C)n1c(C2CCC(NC(=O)c3cccc(CNc4cccc5c4C(=O)N(C4CCC(=O)NC4=O)C5=O)c3)CC2)nc2cccnc21", "note": "(stereo not drawn) [Example 83]", "GI50": "< 100"}
{"smiles": "Cn1c2cnccc2nc1[C@H]1CC[C@H](NC(=O)c2cc(CNc3cccc4c3C(=O)N(C3CCC(=O)NC3=O)C4=O)ccn2)CC1", "note": "(stereo partly drawn) [Example 26]", "GI50": "< 100"}
